For experiment [1], the target named is T1, h-GABA-A α5β3γ2 (Homo sapiens (Human), UniProt P18507+P31644). In words: [3H]flumazenil competition binding assay, membranes of HEK293 cells expressing human GABAA receptors. To be noted: displacement of [3H]flumazenil 0.5 nM, HEK293 cells expressing human receptors, mean of two determinations; read-out: Ki h-GABA-A α5β3γ2. The gist of the method: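 Membranes were prepared from HEK293 cells with transient human α5β3γ2 expression and assayed in Krebs-tris, pH 7.5. Bound radioactivity measured on filters by liquid scintillation.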

Experiment [2] deals with T1, h-GABA-A α5β3γ2. Put plainly: Two-electrode voltage clamp electrophysiology in Xenopus oocytes expressing GABAA receptors, modulation of GABA EC20 current. Format: cell-based. Particulars: Xenopus oocytes; for Efficacy (GABA) %: % modulation of GABA EC20 = 100*(Fold increase−1); for Fold increase h-GABA-A α5β3γ2 oocyte: GABA EC20, test compound at approx. 30 fold its Ki. An outline of the steps:
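Values are % modulation of an EC20 GABA response, derived point by point from the ratio of compound-exposed versus control current traces (extremum taken, 100×(fold−1)). Recordings used oocytes injected with human α5, β3, γ2 mRNA, clamped at −80 mV at room temperature, at least 3 oocytes each.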

The results in this text go back to patent publication US20240279218A1 (Hoffmann-La Roche Inc., priority 2016, published 2024).

On to `Cc1ccc(-c2noc(C)c2COc2ccc(C(=O)NC(C)(C)C(F)(F)F)nn2)cn1` [Example 64, 6-((5-methyl-3-(6-methylpyridin-3-yl)isoxazol-4-yl)methoxy)-N-(1,1,1-trifluoro-2-methylpropan-2-yl)pyridazine-3-carboxamide], for which the Ki on h-GABA-A α5β3γ2 [1] stood at 17.6 nM. At h-GABA-A α5β3γ2 [2], the “Efficacy (GABA) %” value worked out at 86% and the “Fold increase h-GABA-A α5β3γ2 oocyte” value worked out at 1.86.

Turning to `Cc1ccc(-c2noc(C)c2COc2ccc(C(=O)N[C@H]3C[C@@H](OC(F)F)C3)nn2)cn1` [Example 173, cis-N-(3-(difluoromethoxy)cyclobutyl)-6-((5-methyl-3-(6-methylpyridin-3-yl)isoxazol-4-yl)methoxy)pyridazine-3-carboxamide], the inhibition constant Ki on h-GABA-A α5β3γ2 [1] stood at 15.6 nM. Besides, at h-GABA-A α5β3γ2 [2], the “Efficacy (GABA) %” value was found to be 68% and the “Fold increase h-GABA-A α5β3γ2 oocyte” value is on record as 1.68.

In the case of `CCC[C@@H](CO)NC(=O)c1ccc(OCc2c(-c3ccc(OC)nc3)noc2C)nc1` [Example 139, (S)—N-(1-hydroxypentan-2-yl)-6-((3-(6-methoxypyridin-3-yl)-5-methylisoxazol-4-yl)methoxy)pyridine-3-carboxamide], the Ki at h-GABA-A α5β3γ2 [1] worked out at 19.4 nM. Further, at h-GABA-A α5β3γ2 [2], the “Efficacy (GABA) %” value was found to be 152% and the “Fold increase h-GABA-A α5β3γ2 oocyte” value was 2.52.

For `Cc1ccc(-c2noc(C)c2COc2ccc(C(=O)NC(C)(C)CCO)nn2)cn1` [Example 79, N-(4-hydroxy-2-methylbutan-2-yl)-6-((5-methyl-3-(6-methylpyridin-3-yl)isoxazol-4-yl)methoxy)pyridazine-3-carboxamide], at h-GABA-A α5β3γ2 [1], the inhibitory constant (Ki) turned out to be 11.3 nM. Also, at h-GABA-A α5β3γ2 [2], the “Efficacy (GABA) %” value was found to be 96% and the “Fold increase h-GABA-A α5β3γ2 oocyte” value was determined as 1.96.

With `Cc1ccc(-c2noc(C)c2COc2ccc(C(=O)NCC(C)C)cn2)cn1` [Example 11, N-isobutyl-6-((5-methyl-3-(6-methylpyridin-3-yl)isoxazol-4-yl)methoxy)nicotinamide], at h-GABA-A α5β3γ2 [1], the Ki is 11.2 nM. On h-GABA-A α5β3γ2 [2], the “Efficacy (GABA) %” value is listed as 55% and the “Fold increase h-GABA-A α5β3γ2 oocyte” value is 1.55.

As for `CC1(NC(=O)c2ccc(OCc3c(-c4ccc(Cl)nc4)noc3C3CC3)nn2)COC1` [Example 177], the Ki on h-GABA-A α5β3γ2 [1] stood at 39.7 nM. Besides, on h-GABA-A α5β3γ2 [2], the “Efficacy (GABA) %” value is 109% and the “Fold increase h-GABA-A α5β3γ2 oocyte” value is 2.09.

`Cc1ccc(-c2noc(C)c2COc2ccc(C(=O)N[C@@H]3C[C@@H]4CC[C@@H]3O4)nn2)cn1` (single isomer, unassigned) [Example 189]: the Ki at h-GABA-A α5β3γ2 [1] amounted to 18.8 nM. For the same molecule, at h-GABA-A α5β3γ2 [2], the “Efficacy (GABA) %” value came out at 86% and the “Fold increase h-GABA-A α5β3γ2 oocyte” value worked out at 1.86.

Consider `CCNC(=O)c1ccc(OCc2c(-c3ccc(C)nc3)noc2C)nc1` [Example 3, N-ethyl-6-((5-methyl-3-(6-methyl-3-pyridyl)isoxazol-4-yl)methoxy)pyridine-3-carboxamide], for which the Ki on h-GABA-A α5β3γ2 [1] was determined as 1.4 nM. Further, on h-GABA-A α5β3γ2 [2], the “Efficacy (GABA) %” value is recorded as 41% and the “Fold increase h-GABA-A α5β3γ2 oocyte” value was 1.41.

For `Cc1ccc(-c2noc(C)c2COc2ccc(C(=O)NC3CCS(=O)(=O)CC3)nn2)cn1` [Example 30, N-(1,1-dioxothian-4-yl)-6-((5-methyl-3-(6-methylpyridin-3-yl)-1,2-oxazol-4-yl)methoxy)pyridazine-3-carboxamide], the inhibition constant Ki at h-GABA-A α5β3γ2 [1] stood at 12.4 nM. On h-GABA-A α5β3γ2 [2], the “Efficacy (GABA) %” value turned out to be 94% and the “Fold increase h-GABA-A α5β3γ2 oocyte” value was 1.94.

In the case of `CCc1onc(-c2ccc(C)nc2)c1COc1ccc(C(=O)NC2CCOCC2)cn1` [Example 119, 6-((5-ethyl-3-(6-methylpyridin-3-yl)isoxazol-4-yl)methoxy)-N-tetrahydropyran-4-yl-pyridine-3-carboxamide], at h-GABA-A α5β3γ2 [1], the Ki came to 31 nM. Moreover, at h-GABA-A α5β3γ2 [2], the “Efficacy (GABA) %” value is 102% and the “Fold increase h-GABA-A α5β3γ2 oocyte” value turned out to be 2.02.

As to `Cc1ccc(-c2noc(C)c2COc2ccc(C(=O)NCC3COC3)nn2)cn1` [Example 50, 6-((5-methyl-3-(6-methyl-3-pyridyl)isoxazol-4-yl)methoxy)-N-(oxetan-3-ylmethyl)pyridazine-3-carboxamide], the Ki at h-GABA-A α5β3γ2 [1] was determined as 7.6 nM. In addition, on h-GABA-A α5β3γ2 [2], the “Efficacy (GABA) %” value came out at 72% and the “Fold increase h-GABA-A α5β3γ2 oocyte” value worked out at 1.72.

On to `Cc1onc(-c2ccc(C(F)(F)F)nc2)c1COc1ccc(C(=O)NC2CCOCC2)nn1` [Example 185, 6-((5-methyl-3-(6-(trifluoromethyl)pyridin-3-yl)isoxazol-4-yl)methoxy)-N-(tetrahydropyran-4-yl)pyridazine-3-carboxamide], for which the Ki on h-GABA-A α5β3γ2 [1] was found to be 70.7 nM. At h-GABA-A α5β3γ2 [2], the “Efficacy (GABA) %” value is recorded as 124% and the “Fold increase h-GABA-A α5β3γ2 oocyte” value is 2.24.

For `Cc1ccc(-c2noc(C)c2COc2ccc(C(=O)N3CC4(C3)CS(=O)(=O)C4)nn2)cn1` [Example 112, (2,2-dioxido-2-thia-6-azaspiro[3.3]heptan-6-yl)(6-((5-methyl-3-(6-methylpyridin-3-yl)isoxazol-4-yl)methoxy)pyridazin-3-yl)methanone], the Ki on h-GABA-A α5β3γ2 [1] was 6.5 nM. Further, at h-GABA-A α5β3γ2 [2], the “Efficacy (GABA) %” value came out at 43% and the “Fold increase h-GABA-A α5β3γ2 oocyte” value was 1.43.

For `Cc1ccc(-c2noc(C)c2COc2ccc(C(=O)N[C@H]3C[C@H](OC4CC4)C3)nn2)cn1` [Example 175, trans-N-(3-cyclopropoxycyclobutyl)-6-((5-methyl-3-(6-methylpyridin-3-yl)isoxazol-4-yl)methoxy)pyridazine-3-carboxamide], the Ki at h-GABA-A α5β3γ2 [1] is 10.1 nM. On h-GABA-A α5β3γ2 [2], the “Efficacy (GABA) %” value is given as 82% and the “Fold increase h-GABA-A α5β3γ2 oocyte” value was found to be 1.82.

Consider `Cc1ccc(-c2noc(C)c2COc2ccc(C(=O)N3C4COCC3C4)nn2)cn1` [Example 157, 3-oxa-6-azabicyclo[3.1.1]heptan-6-yl(6-((5-methyl-3-(6-methylpyridin-3-yl)isoxazol-4-yl)methoxy)pyridazin-3-yl)methanone], for which the inhibition constant (Ki) at h-GABA-A α5β3γ2 [1] came to 6 nM. For the same molecule, on h-GABA-A α5β3γ2 [2], the “Efficacy (GABA) %” value is on record as 76% and the “Fold increase h-GABA-A α5β3γ2 oocyte” value is recorded as 1.76.

For the molecule `Cc1ccc(-c2noc(C)c2COc2ccc(C(=O)NC3CC(F)(F)C3)nn2)cn1` [Example 42, N-(3,3-difluorocyclobutyl)-6-((5-methyl-3-(6-methylpyridin-3-yl)isoxazol-4-yl)methoxy)pyridazine-3-carboxamide], at h-GABA-A α5β3γ2 [1], the Ki is 8.9 nM. Also, at h-GABA-A α5β3γ2 [2], the “Efficacy (GABA) %” value stood at 81% and the “Fold increase h-GABA-A α5β3γ2 oocyte” value amounted to 1.81.

For the molecule `Cc1ccc(-c2noc(C)c2COc2ccc(C(=O)N[C@H]3C[C@H]4CC[C@H]3O4)nn2)cn1` (single isomer, unassigned) [Example 188], the Ki on h-GABA-A α5β3γ2 [1] came to 20.7 nM. On h-GABA-A α5β3γ2 [2], the “Efficacy (GABA) %” value is given as 71% and the “Fold increase h-GABA-A α5β3γ2 oocyte” value worked out at 1.71.

Regarding `COc1cc(OCc2c(-c3ccc(C)nc3)noc2C)ncc1C(=O)NC1CCOCC1` [Example 142, 4-methoxy-6-((5-methyl-3-(6-methylpyridin-3-yl)isoxazol-4-yl)methoxy)-N-(tetrahydropyran-4-yl)nicotinamide], the inhibition constant Ki at h-GABA-A α5β3γ2 [1] came out at 4.7 nM. For the same molecule, at h-GABA-A α5β3γ2 [2], the “Efficacy (GABA) %” value is reported as 44% and the “Fold increase h-GABA-A α5β3γ2 oocyte” value stood at 1.44.

Take `Cc1ccc(-c2noc(C)c2COc2ccc(C(=O)N3CCOCC3)nn2)cn1` [Example 60, (6-((5-methyl-3-(6-methylpyridin-3-yl)isoxazol-4-yl)methoxy)pyridazin-3-yl)(morpholino)methanone]: the Ki at h-GABA-A α5β3γ2 [1] is 93.4 nM. Further, on h-GABA-A α5β3γ2 [2], the “Efficacy (GABA) %” value is 99% and the “Fold increase h-GABA-A α5β3γ2 oocyte” value is 1.99.

On to `Cc1ccc(-c2noc(C)c2COc2ccc(C(=O)N[C@H]3C[C@H](OCC(F)F)C3)nn2)cn1` [Example 170, trans-N-3-((2,2-difluoroethoxy)cyclobutyl)-6-((5-methyl-3-(6-methylpyridin-3-yl)isoxazol-4-yl)methoxy)pyridazine-3-carboxamide], for which the Ki on h-GABA-A α5β3γ2 [1] was found to be 8.8 nM. Besides, at h-GABA-A α5β3γ2 [2], the “Efficacy (GABA) %” value is 60% and the “Fold increase h-GABA-A α5β3γ2 oocyte” value amounted to 1.6.

With `Cc1ccc(-c2noc(C)c2COc2cnc(C(=O)NCCO)cn2)cn1` [Example 90, N-(2-Hydroxyethyl)-5-((5-methyl-3-(6-methylpyridin-3-yl)isoxazol-4-yl)methoxy)pyrazine-2-carboxamide], at h-GABA-A α5β3γ2 [1], the Ki turned out to be 16.7 nM. On h-GABA-A α5β3γ2 [2], the “Efficacy (GABA) %” value came out at 37% and the “Fold increase h-GABA-A α5β3γ2 oocyte” value amounted to 1.37.

Take `Cc1ccc(-c2noc(CF)c2COc2ccc(C(=O)NC3(C(F)(F)F)CC3)nn2)cn1` [Example 184, 6-((5-(fluoromethyl)-3-(6-methylpyridin-3-yl)isoxazol-4-yl)methoxy)-N-(1-(trifluoromethyl)cyclopropyl)pyridazine-3-carboxamide]: at h-GABA-A α5β3γ2 [1], the Ki is 51.2 nM. Besides, at h-GABA-A α5β3γ2 [2], the “Efficacy (GABA) %” value is recorded as 96% and the “Fold increase h-GABA-A α5β3γ2 oocyte” value is 1.96.

With `Cc1ccc(-c2noc(C)c2COc2ccc(C(=O)N[C@H]3C[C@@H](OCC(F)F)C3)nn2)cn1` [Example 169, cis-N-3-((2,2-difluoroethoxy)cyclobutyl)-6-((5-methyl-3-(6-methylpyridin-3-yl)isoxazol-4-yl)methoxy)pyridazine-3-carboxamide], the Ki at h-GABA-A α5β3γ2 [1] came to 18.9 nM. On h-GABA-A α5β3γ2 [2], the “Efficacy (GABA) %” value is 66% and the “Fold increase h-GABA-A α5β3γ2 oocyte” value was 1.66.

For `Cc1ccc(-c2noc(C)c2COc2cnc(C(=O)NC3CCOC3)cn2)cn1` (stereo in doubt) [Example 92, (S)-5-((5-Methyl-3-(6-methylpyridin-3-yl)isoxazol-4-yl)methoxy)-N-(tetrahydrofuran-3-yl)pyrazine-2-carboxamide], at h-GABA-A α5β3γ2 [1], the Ki was 13.2 nM. Besides, on h-GABA-A α5β3γ2 [2], the “Efficacy (GABA) %” value is listed as 67% and the “Fold increase h-GABA-A α5β3γ2 oocyte” value stood at 1.67.
